Source: patent publication US12275684B2, “Methods for making and using endoxifen” (Atossa Therapeutics, Inc., priority 2017, dated 2025)
Several values for one entry are separate records, joined by “and”; a condition that tells them apart may be missing. Equal values may be shown once.

What was measured:
[1] = Accelerated 10-day stability study of solid (Z)-endoxifen free base (E/Z by HPLC); format: physicochemical; conditions: for (E)-endoxifen content / (Z)-endoxifen content / E/Z ratio / Total Impurity: solid
Protocol: HPLC-UV analyses of the samples was carried out using a Luna phenyl-hexyl column (4.6 mm×150 mm×3 μm of particle size). The column temperature was 40° C. and sample compartment temperature was maintained at ambient temperature. Samples were prepared by dissolving solids and filtrates at 0.2 mg/ml of sample in methanol as sample buffer. Samples were then injected into the column in an injection volume of 20 μl. Likewise, mildly acidic (pH 4.3) ammonium formate buffer/methanol in the mobile phase with gradient elution was used. Mobile phase system consisting of: Mobile Phase A (MPA) buffer was 10 mM HCOONH4 with 0.03% HCOOH buffer in water, and Mobile Phase B (MBP) buffer was 10 mM HCOONH4 in methanol with a gradient program used.
The run time was 30 m, the flow rate was 1.0 mL/m, and the delay time was 5 m. Samples were detected by UV detection at 243 nm. Retention times were typically from 12.95 to 13.20 m for (E)-endoxifen and from 14.0 to 14.33 m for (Z)-endoxifen. Relative Retention Time (RRT) for (E)-endoxifen was […] and 1.0 for (Z)-endoxifen.
The stability of (Z)-endoxifen free base Sample 1 of Table 11 was studied when stored at various temperatures in solid form and in ethanol (EtOH) solution. The (E)-endoxifen and (Z)-endoxifen levels were measured on days 2, 7 and 10 following placement of 1 g aliquots of purified (Z)-endoxifen free base in 180 mL HDPE bottles under dry N2, which were then placed in double LDPE bags. The double bagged HDPE bottles containing each sample were individually packed in aluminum foil bags and thermally sealed until they were opened for testing the stability of the samples. The (E)- and (Z)-isomers of endoxifen were monitored by HPLC as disclosed above. The purity of (Z)-endoxifen in solid form remained at about 97% at 40° C., 60° C., and 80° C. up to 10 days.

[2] = Comparison of (Z)-endoxifen concentrations (oral) with published literature (Table 22); format: in vivo

purity of (Z)-endoxifen in solid form ([1]; 40° C., 60° C., and 80° C. up to 10 days): about 97%
(E)-endoxifen content ([1]; 40° C., 2 days): 1.27%
(Z)-endoxifen content ([1]; 40° C., 2 days): 97.45%
E/Z ratio ([1]; 40° C., 2 days): 1/76
Total Impurity ([1]; 40° C., 2 days): 1.28%
(E)-endoxifen content ([1]; 40° C., 7 days): 1.2%
(Z)-endoxifen content ([1]; 40° C., 7 days): 97.11%
E/Z ratio ([1]; 40° C., 7 days): 1/81
Total Impurity ([1]; 40° C., 7 days): 1.69%
(E)-endoxifen content ([1]; 40° C., 10 days): 1.29%
(Z)-endoxifen content ([1]; 40° C., 10 days): 97.31%
E/Z ratio ([1]; 40° C., 10 days): 1/75
Total Impurity ([1]; 40° C., 10 days): 1.40%
(E)-endoxifen content ([1]; 60° C., 2 days): 1.30%
(Z)-endoxifen content ([1]; 60° C., 2 days): 97.43%
E/Z ratio ([1]; 60° C., 2 days): 1/75
Total Impurity ([1]; 60° C., 2 days): 1.27%
(E)-endoxifen content ([1]; 60° C., 7 days): 1.17%
(Z)-endoxifen content ([1]; 60° C., 7 days): 97.1%
E/Z ratio ([1]; 60° C., 7 days): 1/83
Total Impurity ([1]; 60° C., 7 days): 1.72%
(E)-endoxifen content ([1]; 60° C., 10 days): 1.27%
(Z)-endoxifen content ([1]; 60° C., 10 days): 97.48%
E/Z ratio ([1]; 60° C., 10 days): 1/82
Total Impurity ([1]; 60° C., 10 days): 1.33%
(E)-endoxifen content ([1]; 80° C., 2 days): 1.28%
(Z)-endoxifen content ([1]; 80° C., 2 days): 97.42%
E/Z ratio ([1]; 80° C., 2 days): 1/76
Total Impurity ([1]; 80° C., 2 days): 1.30%
(E)-endoxifen content ([1]; 80° C., 7 days): 1.34%
(Z)-endoxifen content ([1]; 80° C., 7 days): 96.92%
E/Z ratio ([1]; 80° C., 7 days): 1/72
Total Impurity ([1]; 80° C., 7 days): 1.74%
(E)-endoxifen content ([1]; 80° C., 10 days): 1.27%
(Z)-endoxifen content ([1]; 80° C., 10 days): 97.33%
E/Z ratio ([1]; 80° C., 10 days): 1/77
Total Impurity ([1]; 80° C., 10 days): 1.40%
interconversion of (Z)- to (E)-endoxifen in solid form ([1]; tested temperatures up to 10 days): does not interconvert to (E)-endoxifen
% Ratio of Css Study/Literature ([2]; oral dose 1 mg): 154%
Study Result of Average Serum (Z)-Endoxifen Css ([2]; oral dose 1 mg): 19.1 ng/mL and 51.1 nM
% Ratio of Css Study/Literature ([2]; oral dose 2 mg): 204%
Study Result of Average Serum (Z)-Endoxifen Css ([2]; oral dose 2 mg): 38 ng/mL and 101.7 nM
% Ratio of Css Study/Literature ([2]; oral dose 4 mg): 150%
Study Result of Average Serum (Z)-Endoxifen Css ([2]; oral dose 4 mg): 85.1 ng/mL and 227.9 nM
SMILES: CC/C(=C(\c1ccc(O)cc1)c1ccc(OCCNC)cc1)c1ccccc1 [(Z)-Endoxifen, (Z)-4-(1-(4-(2-(methylamino)ethoxy)phenyl)-2-phenylbut-1-enyl) phenol]
